Source: PMC11538350, “Synthetic studies on the tetrasubstituted D-ring of cystobactamids lead to potent terephthalic acid antibiotics” (Communications Chemistry, 2024)
Values after ≈ are worked out from the molar mass of the structure shown.

Tests used:
[1] = test system: S. pneum. DSM-11865 (PRSP); experiment: MIC assay; assay type: cell-based; settings: Streptococcus pneumoniae, read-out: MIC S. pneum. DSM-11865 (PRSP)
Description: (§1) All cystobactamids were evaluated in MIC-assays on a panel of representative ESKAPE strains with focus on A. baumannii (Tables 1 and 2). Compared to our previous work[10],[17],[18], we specifically included more challenging test strains with known resistances against gyrase inhibitors.
(§2) 2.1 Materials and Methods
(§3) Strains were cultivated according to standard procedures. Bacterial cryo-cultures were
(§4) resuspended into fresh MHBII (cation adjusted) medium. The resuspension
(§5) assay plate (Corning, #3788).
(§6) in parallel as a positive control. […]

A. baum. R835 = experiment: MIC assay; assay type: cell-based; settings: Acinetobacter baumannii, read-out: MIC A. baum. R835
Description: as §1, §2, §3, §4, §5, §6

P. ae. PA14 = experiment: MIC assay; assay type: cell-based; settings: Pseudomonas aeruginosa, PA14, read-out: MIC P. ae. PA14
Description: as §1, §2, §3, §4, §5, §6

K. pneum. R-1525 = experiment: MIC assay; assay type: cell-based; settings: Klebsiella pneumoniae, read-out: MIC K. pneum. R-1525
Description: as §1, §2, §3, §4, §5, §6

E. cloacae ATCC BAA-2468 = experiment: MIC assay; assay type: cell-based; settings: Enterobacter cloacae, ATCCBAA2468, read-out: MIC E. cloacae ATCC BAA-2468
Description: as §1, §2, §3, §4, §5, §6

K. pneum. KP10581 = experiment: MIC assay; assay type: cell-based; settings: Klebsiella pneumoniae, read-out: MIC K. pneum. KP10581
Description: as §1, §2, §3, §4, §5, §6

S. aur. ATCC-29213 = experiment: MIC assay; assay type: cell-based; settings: Staphylococcus aureus, ATCC29213, read-out: MIC S. aur. ATCC-29213
Description: as §1, §2, §3, §4, §5, §6

E. coli ATCC-25922 = experiment: MIC assay; assay type: cell-based; settings: Escherichia coli, ATCC25922, read-out: MIC E. coli ATCC-25922
Description: as §1, §2, §3, §4, §5, §6

A. baum. CIP-107292 = experiment: MIC assay; assay type: cell-based; settings: Acinetobacter baumannii, CIP107292, read-out: MIC A. baum. CIP-107292
Description: as §1, §2, §3, §4, §5, §6

A. baum. DSM-30008 = experiment: MIC assay; assay type: cell-based; settings: Acinetobacter baumannii, DSM30008, read-out: MIC A. baum. DSM-30008
Description: as §1, §2, §3, §4, §5, §6

K. pneum. CIP-104298 = experiment: MIC assay; assay type: cell-based; settings: Klebsiella pneumoniae, CIP104298, read-out: MIC K. pneum. CIP-104298
Description: as §1, §2, §3, §4, §5, §6

A. baum. ATCC BAA-1710 = experiment: MIC assay; assay type: cell-based; settings: Acinetobacter baumannii, ATCCBAA1710, read-out: MIC A. baum. ATCC BAA-1710
Description: as §1, §2, §3, §4, §5, §6

E. coli LM705 = experiment: MIC assay; assay type: cell-based; settings: Escherichia coli, LM705, read-out: MIC E. coli LM705
Description: as §1, §2, §3, §4, §5, §6

A. baum. CIP-105742 = experiment: MIC assay; assay type: cell-based; settings: Acinetobacter baumannii, CIP105742, read-out: MIC A. baum. CIP-105742
Description: as §1, §2, §3, §4, §5, §6

P. ae. PA14ΔmexAB = experiment: MIC assay; assay type: cell-based; settings: Pseudomonas aeruginosa, read-out: MIC P. ae. PA14ΔmexAB
Description: as §1, §2, §3, §4, §5, §6

[2] = PK study in mice after intravenous administration; assay type: in vivo, CD-1 mice; settings: male, plasma
Description: and approved by the Helmholtz Centre for Infection Research.
Germany), 4-weeks-old, were used. The animal studies were conducted in accordance […]
Verbraucherschutz und Lebensmittelsicherheit, Oldenburg, Germany.
Then, plasma was transferred into a new Eppendorf tube and stored at -80°C until analysis.
Bioanalysis of pharmacokinetic and pharmacodynamic samples […]
mouse plasma from CD-1 mice. Glipizide was used as an internal standard. In addition, […]
mixer. […] Supernatants were […]
transferred to standard HPLC-glass vials. Samples were analyzed using LC-MS/MS conditions as described above. Peaks of PK samples were quantified using the calibration curve using AB Sciex Multiquant Software 3.0. The accuracy of the calibration curve was determined using QCs independently prepared. PK parameters were determined using a non-compartmental analysis with PKSolver.23
Figure S1: Plasma concentration curves for cystobactamid 42. Error bars were determined via standard deviation of two cassette experiments per compound (n=2). […]
(1 picture or pasted object on this page, not shown here)

[3] = Description: 2.1 Materials and Methods […]
Determination of in vitro ADME properties
7, 8, 11 and 42. All samples were analysed via HPLC -MS/MS.
HPLC-MS/MS analysis of cystobactamids
AB Sciex QTrap 6500plus mass spectrometer. LC conditions were as follows: column:
Samples were run under acidic
For plasma stability experiments, samples were procured from commercial sources.
Human plasma was obtained from Antibodies-online (catalog no. ABIN5706569), and mouse plasma was obtained from Tebubio (catalog no. D408-04-0050).
The methods were performed in accordance with relevant guidelines and regulations and approved by the Helmholtz Centre for Infection Research. […]

[4] = metabolic stability assay, human microsomes; settings: second microsome column of Table S4, head prints (M); mouse and human microsomes
ESKAPE strains = experiment: MIC-assays on a panel of representative ESKAPE strains, summary in words; assay type: cell-based; settings: summary of the MIC tables
Description: as §1, §2, §3, §4, §5, §6

[5] = metabolic stability assay, mouse microsomes; settings: Table S4
E. ae. CIP 106754 = experiment: MIC assay; assay type: cell-based, Enterobacter aerogenes; settings: Klebsiella aerogenes, CIP106754, read-out: MIC E. ae. CIP 106754
Description: as §1, §2, §3, §4, §5, §6

E. faec. DSM-17050 (VRE) = experiment: MIC assay; assay type: cell-based, Enterococcus faecium; settings: Enterococcus, read-out: MIC E. faec. DSM-17050 (VRE)
Description: as §1, §2, §3, §4, §5, §6

`C#CC[C@H](NC(=O)c1ccc(NC(=O)c2ccc(C#N)cc2)cc1)C(=O)Nc1ccc(NC(=O)c2ccc(C(=O)Nc3ccc(C(=O)O)cc3)c(O)c2OC(C)C)cc1` [Cmpd. 42] gave an MIC [1] of less than 0.03 µg/mL, an MIC (A. baum. R835) of 0.5 µg/mL (≈ 0.631 µM) and an MIC (P. ae. PA14) of 4 µg/mL (≈ 5.05 µM). It also gave an MIC (K. pneum. R-1525) of less than 0.03 µg/mL, an MIC (E. cloacae ATCC BAA-2468) of 0.25 µg/mL (≈ 0.315 µM) and an MIC (K. pneum. KP10581) of less than 0.03 µg/mL. For the same compound, the MIC (S. aur. ATCC-29213) was 0.06 µg/mL (≈ 0.0757 µM), the MIC (E. coli ATCC-25922) was less than 0.03 µg/mL and the MIC (A. baum. CIP-107292) was 0.05 µg/mL (≈ 0.0631 µM). For the same compound, the MIC (A. baum. DSM-30008) was 0.125 µg/mL (≈ 0.158 µM), the MIC (K. pneum. CIP-104298) was less than 0.03 µg/mL and the MIC (A. baum. ATCC BAA-1710) was 0.03 to 0.05 µg/mL (≈ 0.0378 to 0.0631 µM). The MIC (E. coli LM705) was 0.06 µg/mL (≈ 0.0757 µM), the MIC (A. baum. CIP-105742) was less than 0.03 µg/mL and the MIC (P. ae. PA14ΔmexAB) was less than 0.03 µg/mL. For the same compound, the clearance ([2]; CD-1, mouse, iv, 1 mg/kg) was 17.9 ± 12.3 mL/min/kg, the C0 ([2]; CD-1, mouse, iv, 1 mg/kg, concentration at t = 0 h, CD-1 mice, 1 mg/kg IV) was roughly 2200 ng/mL and the Vd ([2]; CD-1, mouse, iv, 1 mg/kg, volume of distribution, CD-1 mice, 1 mg/kg IV, read-out: Vz) was roughly 1.4 L/kg. For the same compound, the AUC(0-t) ([2]; mouse, CD-1 mice, 1 mg/kg IV) was 1210 ± 832 ng·h/mL, the half-life ([2]; mouse, CD-1 mice, 1 mg/kg IV) was 0.88 ± 0.1 h and the “T1/2 PLASMA (H)” value ([3]; human plasma) was greater than 4 h. The “T1/2 PLASMA (M)” value ([3]; mouse plasma) was greater than 4 h, the “T1/2 MICROSOMES (M)” value [4] was greater than 1 h and the “antibacterial activity on the pathogen panel, in words” value (ESKAPE strains) was “exceptional activity”. For the same compound, the “T1/2 MICROSOMES (M)” value [5] was greater than 1 h, the MIC (E. ae. CIP 106754) was 1 µg/mL (≈ 1.26 µM) and the MIC (E. faec. DSM-17050 (VRE)) was less than 0.03 µg/mL.
